Data: ChEMBL document CHEMBL4814020, “Nonbisphosphonate inhibitors of Plasmodium falciparum FPPS/GGPPS” (Bioorg Med Chem Lett, 2021)

Key:
Plasmodium falciparum = assay: Antimalarial activity against Plasmodium falciparum infected in human RBC assessed as reduction in parasite growth measured after 72 hrs by flow cytometry analysis; format: functional, organism-based; conditions: Erythrocyte
[1] = Kinetic solubility of compound; format: physicochemical; conditions: read-out: Kinetic_solubility
MDR1 [2] = assay: Apparent permeability in pig LLC-PK1 cells expressing MDR1 measured upto 360 mins; format: ADME, cell-based, Sus scrofa
[3] = Metabolic stability in human liver microsomes assessed as intrinsic clearance; format: ADME, Microsome; conditions: read-out: CLH
[4] = Inhibition of recombinant Plasmodium falciparum N-terminal His6-tagged GGPPS expressed in Escherichia coli expression system assessed as reduction in pyrophosphate release using GPP as substrate incubated for 30 mins followed by substrate addition by PPiLight detection reagent based luminescence assay
[5] = molecular target: T1, Geranylgeranyl pyrophosphate synthase (Homo sapiens, UniProt O95749); assay: Inhibition of recombinant human N-terminal His6-tagged GGPPS assessed as reduction in pyrophosphate release using GPP as substrate upto 200 uM incubated for 30 mins followed by substrate addition by PPiLight detection reagent based luminescence assay; conditions: 0.5 h
T1 sequence (O95749 whole entry): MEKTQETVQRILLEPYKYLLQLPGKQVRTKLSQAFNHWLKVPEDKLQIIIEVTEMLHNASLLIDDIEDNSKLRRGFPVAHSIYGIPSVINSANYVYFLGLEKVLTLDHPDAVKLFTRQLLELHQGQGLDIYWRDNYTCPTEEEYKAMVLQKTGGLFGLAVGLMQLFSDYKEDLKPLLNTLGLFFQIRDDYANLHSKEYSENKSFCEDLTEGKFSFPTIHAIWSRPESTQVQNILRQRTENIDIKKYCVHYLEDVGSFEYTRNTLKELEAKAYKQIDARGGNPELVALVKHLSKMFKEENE

MDR1 [6] = assay: Efflux ratio of apparent permeability in pig LLC-PK1 cells expressing MDR1 measured upto 360 mins; format: ADME, cell-based, Sus scrofa
[7] = Lipophilicity, logD of the compound in octanol-buffer at pH 7.4 measured after 18 hrs under shaking condition by reverse phase HPLC-MS analysis; format: physicochemical
[8] = Metabolic stability in mouse liver microsomes assessed as intrinsic clearance; format: ADME, Microsome; conditions: read-out: CLH
[9] = molecular target: T2, Farnesyl pyrophosphate synthase (Homo sapiens, UniProt P14324); assay: Inhibition of recombinant human N-terminal His6-tagged FPPS assessed as reduction in pyrophosphate release using GPP as substrate upto 200 uM incubated for 30 mins followed by substrate addition by PPiLight detection reagent based luminescence assay; conditions: 0.5 h
T2 sequence (P14324 whole entry): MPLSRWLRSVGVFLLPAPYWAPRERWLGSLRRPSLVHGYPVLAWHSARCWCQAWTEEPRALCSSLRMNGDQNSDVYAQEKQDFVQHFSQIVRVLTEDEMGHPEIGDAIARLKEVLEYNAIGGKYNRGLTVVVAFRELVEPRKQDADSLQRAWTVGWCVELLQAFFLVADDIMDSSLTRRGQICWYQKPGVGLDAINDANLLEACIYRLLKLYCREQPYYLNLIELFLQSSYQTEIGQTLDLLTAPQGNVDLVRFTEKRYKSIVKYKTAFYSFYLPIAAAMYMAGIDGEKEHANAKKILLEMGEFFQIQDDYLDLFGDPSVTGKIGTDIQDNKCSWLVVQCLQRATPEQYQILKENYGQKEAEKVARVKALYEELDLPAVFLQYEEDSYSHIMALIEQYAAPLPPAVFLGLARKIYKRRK

SMILES | IC50 (Plasmodium falciparum) [µM] | solubility kinetic [1] [µg/mL] | Papp at 6 h (MDR1 [2]) [×10⁻⁶ cm/s] | microsomal CLint [3] [µL/min/mg] | IC50 [4] [µM] | inhibition (INH) [5] | efflux ratio at 6 h (MDR1 [6]) | logD at 18 h [7] | microsomal CLint [8] [µL/min/mg] | inhibition (INH) [9]
O=C(CCCN1CCCCCC1)Nc1cnc(-c2ccc(F)c(F)c2)s1 | 0.04 | > 94 | 5.2 | 42 | 1.05 | Not Active | 1.1 | 2.3 | 10 | Not Active
Cc1nc(-c2ccccc2)sc1C(=O)NCCCN1CCCCCC1 | – | – | – | – | 3.79 | Not Active | – | – | – | Not Active
O=C(NCCCN1CCCCCC1)c1nnc(-c2ccccc2)o1 | – | – | – | – | 8.12 | Not Active | – | – | – | Not Active
O=C(CCCN1CCCCCC1)Nc1cnc(-c2ccccc2F)s1 | – | – | – | – | 0.95 | Not Active | – | – | – | Not Active
O=C(NCCCN1CCCCCC1)c1cc(-c2ccccc2)cs1 | – | – | – | – | 2.48 | Not Active | – | – | – | Not Active
O=C(CCCN1CCCCCC1)Nc1cnc(-c2ccccc2)s1 | – | – | – | – | 1.83 | Not Active | – | – | – | Not Active
CC1CCN(CCCNC(=O)c2cnc(-c3ccccc3)s2)C1 (centres undefined) | – | – | – | – | 3.15 | Not Active | – | – | – | Not Active
O=C(CCCN1CCCCCC1)Nc1cnc(-c2ccc(F)cc2)s1 | 0.037 | > 97 | 9.5 | 29 | 1.33 | Not Active | 1.1 | 1.93 | 18 | Not Active
O=C(CCCN1CCCCC1)Nc1cnc(-c2ccc(F)cc2)s1 | 0.073 | > 94 | 10.5 | 15 | 1.61 | Not Active | 1 | 1.81 | 14 | Not Active
O=C(NCCCN1CCC(F)CC1)c1cnc(-c2ccccc2)s1 | – | – | – | – | 2.79 | Not Active | – | – | – | Not Active
COc1cc(-c2ncc(NC(=O)CCCN3CCCCCC3)s2)ccc1F | – | – | – | – | 0.5 | Not Active | – | – | – | Not Active
O=C(NCCCN1CCCC1)c1cnc(-c2ccccc2)s1 | – | – | – | – | 3.1 | Not Active | – | – | – | Not Active
O=C(NCCCN1CCCCCC1)c1cc(-c2ccccc2)ccn1 | – | – | – | – | 6.08 | Not Active | – | – | – | Not Active
O=C(NCCCN1CCCCCC1=O)c1cnc(-c2ccccc2)s1 | – | – | – | – | > 10 | Not Active | – | – | – | Not Active
O=C(CCCN1CCCCCC1)Nc1cnc(-c2cccc(F)c2)s1 | – | – | – | – | 1.42 | Not Active | – | – | – | Not Active
O=C(CCCN1CCCCCC1)Nc1cnc(-c2ccc(F)cc2F)s1 | 0.038 | > 97 | 8.7 | 42 | 0.93 | Not Active | 0.8 | 2.11 | 24 | Not Active
O=C(NCCCN1CCCCCC1)c1ncc(-c2ccccc2)s1 | – | – | – | – | 0.96 | Not Active | – | – | – | Not Active
